Assay results published in ChEMBL document CHEMBL3525949, “Role of organic anion-transporting polypeptides for cellular mesalazine (5-aminosalicylic acid) uptake” (Drug Metab Dispos, 2011).

Assays:
Format in all cases: ADME, cell-based
OATP1B3 [1] = molecular target: T1, OATP1B3 (Homo sapiens, UniProt Q9NPD5); experiment: Drug uptake in human OATP1B3 expressed HEK293 cells assessed as net uptake; conditions: HEK293 cells expressing human OATP1B3
T1 sequence (Q9NPD5 whole entry): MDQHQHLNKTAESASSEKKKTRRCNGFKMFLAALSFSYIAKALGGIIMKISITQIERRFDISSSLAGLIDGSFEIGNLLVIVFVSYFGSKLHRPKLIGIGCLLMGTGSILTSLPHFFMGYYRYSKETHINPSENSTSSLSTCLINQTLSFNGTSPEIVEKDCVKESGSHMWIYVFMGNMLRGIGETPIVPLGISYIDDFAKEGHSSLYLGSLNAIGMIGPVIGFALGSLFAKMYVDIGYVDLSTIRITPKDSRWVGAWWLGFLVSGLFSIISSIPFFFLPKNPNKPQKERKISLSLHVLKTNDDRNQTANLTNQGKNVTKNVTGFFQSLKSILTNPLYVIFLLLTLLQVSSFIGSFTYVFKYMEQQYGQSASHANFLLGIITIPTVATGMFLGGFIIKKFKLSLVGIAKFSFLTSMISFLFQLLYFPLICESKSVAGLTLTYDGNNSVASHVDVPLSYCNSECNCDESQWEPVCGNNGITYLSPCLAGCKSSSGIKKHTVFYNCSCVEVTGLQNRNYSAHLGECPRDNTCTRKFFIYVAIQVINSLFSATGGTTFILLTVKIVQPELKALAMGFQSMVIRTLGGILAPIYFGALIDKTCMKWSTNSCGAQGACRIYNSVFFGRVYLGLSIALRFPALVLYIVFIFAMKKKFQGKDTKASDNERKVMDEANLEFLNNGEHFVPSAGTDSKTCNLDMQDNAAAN

[2] = Drug uptake in human SCLO1B1*15 mutant expressed HEK293 cells assessed as net uptake measured per mg of protein
SCLO1B1*5 mutant = experiment: Drug uptake in human SCLO1B1*5 mutant expressed HEK293 cells assessed as net uptake; conditions: HEK293 cells expressing human SCLO1B1*5 mutant
[3] = Drug uptake in human SCLO1B1*1a mutant expressed HEK293 cells assessed as net uptake measured per mg of protein
OATP1B3 [4] = molecular target: T1, OATP1B3; experiment: Drug uptake in human OATP1B3 expressed HEK293 cells at 20 uM relative to control cells; conditions: HEK293 cells expressing human OATP1B3, read-out: FC
[5] = Drug uptake in human SCLO1B1*1b mutant expressed HEK293 cells assessed as net uptake measured per mg of protein
[6] = molecular target: T2, Solute carrier organic anion transporter family member 1A2 (Homo sapiens, UniProt P46721); experiment: Inhibition of human OATP1A2 expressed HEK293 cells assessed as inhibition of [3H]sulfobromophthalein uptake by liquid scintillation counting
T2 sequence (P46721 whole entry): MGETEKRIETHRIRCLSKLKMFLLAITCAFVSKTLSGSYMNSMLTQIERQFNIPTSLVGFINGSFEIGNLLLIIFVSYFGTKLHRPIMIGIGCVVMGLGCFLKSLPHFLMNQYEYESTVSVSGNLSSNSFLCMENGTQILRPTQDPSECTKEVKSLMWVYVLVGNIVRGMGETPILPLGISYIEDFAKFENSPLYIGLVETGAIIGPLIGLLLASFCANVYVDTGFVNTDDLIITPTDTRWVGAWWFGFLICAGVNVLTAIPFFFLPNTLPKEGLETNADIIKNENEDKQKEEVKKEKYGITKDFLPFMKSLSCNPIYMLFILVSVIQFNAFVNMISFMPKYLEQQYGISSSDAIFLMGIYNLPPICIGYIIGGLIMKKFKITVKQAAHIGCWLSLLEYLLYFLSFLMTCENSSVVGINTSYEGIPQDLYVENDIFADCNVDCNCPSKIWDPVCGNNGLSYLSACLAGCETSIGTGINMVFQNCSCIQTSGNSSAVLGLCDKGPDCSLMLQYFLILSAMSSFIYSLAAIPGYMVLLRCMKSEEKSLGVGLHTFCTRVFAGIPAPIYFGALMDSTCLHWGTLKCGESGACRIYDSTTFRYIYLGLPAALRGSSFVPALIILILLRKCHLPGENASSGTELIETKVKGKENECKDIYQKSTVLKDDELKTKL

SCLO1B1*1a mutant = experiment: Drug uptake in human SCLO1B1*1a mutant expressed HEK293 cells assessed as net uptake; conditions: HEK293 cells expressing human SCLO1B1*1a mutant
[7] = Drug uptake in human SCLO1B1*5 mutant expressed HEK293 cells assessed as net uptake measured per mg of protein
[8] = molecular target: T3, Solute carrier organic anion transporter family member 1B3 (Homo sapiens, UniProt Q9NPD5); experiment: Drug uptake in human OATP1B3 expressed HEK293 cells assessed as net uptake measured per mg of protein
T3 sequence (Q9NPD5 whole entry): T1 sequence (Q9NPD5 whole entry)

[9] = molecular target: T4, Solute carrier organic anion transporter family member 1B1 (Homo sapiens, UniProt Q9Y6L6); experiment: Inhibition of human OATP1B1 expressed HEK293 cells assessed as inhibition of [3H]sulfobromophthalein uptake by liquid scintillation counting
T4 sequence (Q9Y6L6 whole entry): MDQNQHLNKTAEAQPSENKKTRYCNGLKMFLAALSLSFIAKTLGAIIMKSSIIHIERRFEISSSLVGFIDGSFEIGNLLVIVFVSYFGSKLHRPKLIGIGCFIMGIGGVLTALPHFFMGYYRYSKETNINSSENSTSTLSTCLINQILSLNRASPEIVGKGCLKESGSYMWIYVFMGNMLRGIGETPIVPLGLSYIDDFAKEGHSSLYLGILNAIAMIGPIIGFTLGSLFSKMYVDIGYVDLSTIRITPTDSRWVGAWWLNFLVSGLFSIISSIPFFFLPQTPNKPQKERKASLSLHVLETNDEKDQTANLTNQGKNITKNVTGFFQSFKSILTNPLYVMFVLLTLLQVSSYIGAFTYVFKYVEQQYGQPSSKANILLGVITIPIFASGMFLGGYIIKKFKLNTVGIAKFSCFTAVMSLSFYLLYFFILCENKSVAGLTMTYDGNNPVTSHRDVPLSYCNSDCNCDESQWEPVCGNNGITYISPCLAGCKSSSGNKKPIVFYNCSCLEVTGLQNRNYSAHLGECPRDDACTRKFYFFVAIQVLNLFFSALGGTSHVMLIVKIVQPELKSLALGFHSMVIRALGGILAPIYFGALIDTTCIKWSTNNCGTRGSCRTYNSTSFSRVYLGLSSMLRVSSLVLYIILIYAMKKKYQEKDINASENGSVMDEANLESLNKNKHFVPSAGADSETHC

[10] = molecular target: T3, Solute carrier organic anion transporter family member 1B3; experiment: Inhibition of human OATP1B3 expressed HEK293 cells assessed as inhibition of [3H]sulfobromophthalein uptake by liquid scintillation counting
SCLO1B1*1b mutant = experiment: Drug uptake in human SCLO1B1*1b mutant expressed HEK293 cells assessed as net uptake; conditions: HEK293 cells expressing human SCLO1B1*1b mutant
OATP1B1 = molecular target: T5, OATP1B1 (Homo sapiens, UniProt Q9Y6L6); experiment: Drug uptake in human OATP1B1 expressed HEK293 cells at 20 uM relative to control cells; conditions: HEK293 cells expressing human OATP1B1, read-out: FC
T5 sequence (Q9Y6L6 whole entry): T4 sequence (Q9Y6L6 whole entry)

OATP2B1 = molecular target: T6, OATP2B1 (Homo sapiens, UniProt O94956); experiment: Drug uptake in human OATP2B1 expressed HEK293 cells at 20 uM relative to control cells; conditions: HEK293 cells expressing human OATP2B1, read-out: FC
T6 sequence (O94956 whole entry): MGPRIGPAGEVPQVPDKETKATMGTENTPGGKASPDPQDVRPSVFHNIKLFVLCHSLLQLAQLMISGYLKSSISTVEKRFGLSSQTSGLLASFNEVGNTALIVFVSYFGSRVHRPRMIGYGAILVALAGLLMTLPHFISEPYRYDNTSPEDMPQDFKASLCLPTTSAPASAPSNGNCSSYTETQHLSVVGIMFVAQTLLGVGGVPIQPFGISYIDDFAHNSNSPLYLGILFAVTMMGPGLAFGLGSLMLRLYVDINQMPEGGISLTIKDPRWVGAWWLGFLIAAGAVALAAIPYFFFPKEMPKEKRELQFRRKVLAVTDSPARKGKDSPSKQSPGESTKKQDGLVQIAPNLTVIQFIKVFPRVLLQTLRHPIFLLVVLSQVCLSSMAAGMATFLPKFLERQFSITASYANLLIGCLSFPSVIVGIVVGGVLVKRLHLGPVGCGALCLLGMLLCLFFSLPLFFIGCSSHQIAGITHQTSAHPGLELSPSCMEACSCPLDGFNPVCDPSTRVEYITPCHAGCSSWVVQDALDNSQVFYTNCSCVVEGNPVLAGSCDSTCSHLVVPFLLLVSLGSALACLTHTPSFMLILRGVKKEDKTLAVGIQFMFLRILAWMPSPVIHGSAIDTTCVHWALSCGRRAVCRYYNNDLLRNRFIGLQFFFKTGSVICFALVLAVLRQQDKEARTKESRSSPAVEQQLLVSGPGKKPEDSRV

[11] = molecular target: T7, Solute carrier organic anion transporter family member 2B1 (Homo sapiens, UniProt O94956); experiment: Inhibition of human OATP2B1 expressed HEK293 cells assessed as inhibition of [3H]sulfobromophthalein uptake by liquid scintillation counting
T7 sequence (O94956 whole entry): T6 sequence (O94956 whole entry)

SCLO1B1*15 mutant = experiment: Drug uptake in human SCLO1B1*15 mutant expressed HEK293 cells assessed as net uptake; conditions: HEK293 cells expressing human SCLO1B1*15 mutant
[12] = substrate: Nc1ccc(O)c(C(=O)O)c1; experiment: Drug uptake in human OATP2B1 expressed HEK293 cells assessed as net uptake
[13] = substrate: Nc1ccc(O)c(C(=O)O)c1; experiment: Drug uptake in human OATP1B1 expressed HEK293 cells assessed as net uptake

Molecule Nc1ccc(O)c(C(=O)O)c1 [MESALAMINE] has a Km (OATP1B3 [1]) of 77.4 µM, a Vmax [2] of 9.3 pmol/min and a Km (SCLO1B1*5 mutant) of 24.3 µM. The Vmax [3] was 28.3 pmol/min, the uptake ratio at 20 µM (OATP1B3 [4]) was 2.9 and the Vmax [5] was 3.8 pmol/min. The “inhibition (INH)” value [6] was “Dose-dependent effect”, the Km (SCLO1B1*1a mutant) was 55.1 µM and the Vmax [7] was 6.1 pmol/min. The Vmax [8] was 85.1 pmol/min, the “inhibition (INH)” value [9] was “Dose-dependent effect” and the “inhibition (INH)” value [10] was “Dose-dependent effect”. It also gave a Km (SCLO1B1*1b mutant) of 16.3 µM, an uptake ratio at 20 µM (OATP1B1) of 2.7 and an uptake ratio at 20 µM (OATP2B1) of 2. The “inhibition (INH)” value [11] was “Dose-dependent effect” and the Km (SCLO1B1*15 mutant) was 32.4 µM.

B1: Solute carrier organic anion transporter family member 2B1 (Homo sapiens) (protein)
chain: T6 sequence (O94956 whole entry)
With B1 the Km [12] was 189 µM and the Vmax [12] was 3.72e-05 µmol/min.

B2: Solute carrier organic anion transporter family member 1B1 (Homo sapiens) (protein)
chain: T4 sequence (Q9Y6L6 whole entry)
Molecule B2 has a Km [13] of 55.1 µM and a Vmax [13] of 2.83e-05 µmol/min.
